Reference: patent US20240270762A1, “PENICILLIN-BINDING PROTEIN INHIBITORS” (priority 2021, published 2024)
≈ marks a conversion by molar mass, not a printed value.

What was measured:
Format in all cases: cell-based
E. coli 901C = test: microbe, parasite or virus in culture; conditions: Escherichia coli, read-out: MIC E. coli 901C
E. coli D22 = test: microbe, parasite or virus in culture; conditions: Escherichia coli, D22, read-out: MIC E. coli D22
E. coli AG100A = test: Broth microdilution MIC in CAMHB; conditions: Escherichia coli, read-out: MIC E. coli AG100A
K. pneumoniae UMM = test: microbe, parasite or virus in culture; conditions: Klebsiella pneumoniae, read-out: MIC K. pneumoniae UMM
K. pneumoniae SI-117 = test: microbe, parasite or virus in culture; conditions: Klebsiella pneumoniae, SI117, read-out: MIC K. pneumoniae SI-117
P. aeruginosa ATCC 35151 = test: microbe, parasite or virus in culture; conditions: Pseudomonas aeruginosa, ATCC35151, read-out: MIC P. aeruginosa ATCC 35151
B. pseudomallei Bp82 = test: microbe, parasite or virus in culture; conditions: Burkholderia pseudomallei, BP82, read-out: Minimum inhibitory concentration, B. pseudomallei Bp82
P. aeruginosa CDC-0110 = test: microbe, parasite or virus in culture; conditions: Pseudomonas aeruginosa, CDC0110, read-out: Minimum inhibitory concentration, P. aeruginosa CDC-0110

SMILES	MIC (E. coli 901C) [µg/mL]	MIC (E. coli D22) [µg/mL]	MIC (E. coli AG100A) [µg/mL]	MIC (K. pneumoniae UMM) [µg/mL]	MIC (K. pneumoniae SI-117) [µg/mL]	MIC (P. aeruginosa ATCC 35151) [µg/mL]	MIC (B. pseudomallei Bp82) [µg/mL]	MIC (P. aeruginosa CDC-0110) [µg/mL]
O=C(O)c1c(F)ccc2c1OB(O)[C@@H](NC(=O)[C@H](NC(=O)N1CCN(S(=O)(=O)c3ccc(O)c(O)c3Cl)C1=O)c1ccc(P(=O)(O)O)cc1)C2 [Example 506, (R)-3-((R)-2-(3-((2-chloro-3,4-dihydroxyphenyl)sulfonyl)-2-oxoimidazolidine-1-carboxamido)-2-(4-phosphonophenyl)acetamido)-7-fluoro-2-hydroxy-3,4-dihydro-2H-benzo[e][1,2]oxaborinine-8-carboxylic acid]	< 1	< 1	< 1	< 1	< 1	< 1	< 1	< 1
O=C(O)c1c(F)ccc2c1OB(O)[C@@H](NC(=O)C(NC(=O)N1CCN(S(=O)(=O)c3ccc(O)c(O)c3Cl)C1=O)c1ccc(P(=O)(O)O)cc1)C2 (stereo partly drawn) [Example 505, (3R)-3-(2-(3-((2-chloro-3,4-dihydroxyphenyl)sulfonyl)-2-oxoimidazolidine-1-carboxamido)-2-(4-phosphonophenyl)acetamido)-7-fluoro-2-hydroxy-3,4-dihydro-2H-benzo[e][1,2]oxaborinine-8-carboxylic acid]	< 1	< 1	< 1	< 1	< 1	< 1	< 1	< 1
O=C(O)c1cccc2c1OB(O)[C@@H](NC(=O)[C@H](NC(=O)N1CCN(Cc3cc(F)c(O)c(O)c3Cl)C(=O)C1=O)c1ccc(P(=O)(O)O)cc1)C2 [Example 504, (R)-3-((R)-2-(4-(2-chloro-5-fluoro-3,4-dihydroxybenzyl)-2,3-dioxopiperazine-1-carboxamido)-2-(4-phosphonophenyl)acetamido)-2-hydroxy-3,4-dihydro-2H-benzo[e][1,2]oxaborinine-8-carboxylic acid]	< 1	2 to 4 (≈ 2.72 to 5.44 µM)	< 1	2 to 4 (≈ 2.72 to 5.44 µM)	2 to 4 (≈ 2.72 to 5.44 µM)	< 1		< 1
O=C(O)c1c(F)ccc2c1OB(O)[C@@H](NC(=O)[C@H](NC(=O)N1CCN(C3CCN(C(=O)c4ccc(O)c(O)c4Cl)CC3)C1=O)c1ccc(P(=O)(O)O)cc1)C2 [Example 494, (R)-3-((R)-2-(3-(1-(2-chloro-3,4-dihydroxybenzoyl)piperidin-4-yl)-2-oxoimidazolidine-1-carboxamido)-2-(4-phosphonophenyl)acetamido)-7-fluoro-2-hydroxy-3,4-dihydro-2H-benzo[e][1,2]oxaborinine-8-carboxylic acid]							< 1	< 1
O=C(O)c1c(F)ccc2c1OB(O)[C@@H](NC(=O)[C@H](NC(=O)N1CCN(C3CCN(C(=O)Nc4cc(F)c(O)c(O)c4Cl)CC3)C1=O)c1ccc(P(=O)(O)O)cc1)C2 (single isomer, unassigned) [Example 500]							< 1	< 1
O=C(NCCN1CCN(C(=O)N[C@@H](C(=O)N[C@H]2Cc3ccc(F)c(C(=O)O)c3OB2O)c2ccc(P(=O)(O)O)cc2)C(=O)C1=O)c1ccc(O)c(O)c1Cl [Example 503, (R)-3-((R)-2-(4-(2-(2-chloro-3,4-dihydroxybenzamido)ethyl)-2,3-dioxopiperazine-1-carboxamido)-2-(4-phosphonophenyl)acetamido)-7-fluoro-2-hydroxy-3,4-dihydro-2H-benzo[e][1,2]oxaborinine-8-carboxylic acid]							< 1	< 1
O=C(O)c1c(F)ccc2c1OB(O)[C@@H](NC(=O)[C@H](NC(=O)N1CCN(C3CCN(C(=O)Nc4ccc(O)c(O)c4Cl)CC3)C1=O)c1ccc(P(=O)(O)O)cc1)C2 (single isomer, unassigned) [Example 497]							< 1	< 1
O=C(O)c1c(F)ccc2c1OB(O)[C@@H](NC(=O)[C@H](NC(=O)N1CCN(Cc3ccc(O)c(O)c3Cl)C(=O)C1=O)c1cc(F)c(P(=O)(O)O)c(F)c1)C2 [Example 502, (R)-3-((R)-2-(4-(2-chloro-3,4-dihydroxybenzyl)-2,3-dioxopiperazine-1-carboxamido)-2-(3,5-difluoro-4-phosphonophenyl)acetamido)-7-fluoro-2-hydroxy-3,4-dihydro-2H-benzo[e][1,2]oxaborinine-8-carboxylic acid]							< 1	< 1
O=C(O)c1c(F)ccc2c1OB(O)[C@@H](NC(=O)[C@H](NC(=O)N1CCN(C3CCN(C(=O)c4cc(O)c(O)c(Cl)c4)CC3)C1=O)c1ccc(P(=O)(O)O)cc1)C2 [Example 496, (R)-3-((R)-2-(3-(1-(3-chloro-4,5-dihydroxybenzoyl)piperidin-4-yl)-2-oxoimidazolidine-1-carboxamido)-2-(4-phosphonophenyl)acetamido)-7-fluoro-2-hydroxy-3,4-dihydro-2H-benzo[e][1,2]oxaborinine-8-carboxylic acid]							< 1	< 1
O=C(O)c1c(F)ccc2c1OB(O)[C@@H](NC(=O)[C@H](NC(=O)N1CCN(C3CCN(C(=O)c4cc(F)c(O)c(O)c4Cl)CC3)C1=O)c1ccc(P(=O)(O)O)cc1)C2 (single isomer, unassigned) [Example 495]							< 1	< 1
O=C(O)c1c(F)ccc2c1OB(O)[C@@H](NC(=O)C(NC(=O)N1CCN(C3CCN(C(=O)Nc4c(F)ccc(O)c4F)CC3)C(=O)C1=O)c1cc(F)c(O)c(O)c1Cl)C2 (stereo partly drawn) [Example 487, (3R)-3-(2-(2-chloro-5-fluoro-3,4-dihydroxyphenyl)-2-(4-(1-((2,6-difluoro-3-hydroxyphenyl)carbamoyl)piperidin-4-yl)-2,3-dioxopiperazine-1-carboxamido)acetamido)-7-fluoro-2-hydroxy-3,4-dihydro-2H-benzo[e][1,2]oxaborinine-8-carboxylic acid]								< 1
O=C(O)c1c(F)ccc2c1OB(O)[C@@H](NC(=O)C(NC(=O)N1CCN(C3CCN(C(=O)Nc4ccc(Cl)c(O)c4F)CC3)C(=O)C1=O)c1cc(F)c(O)c(O)c1Cl)C2 (stereo partly drawn) [Example 489, (3R)-3-(2-(4-(1-((4-chloro-2-fluoro-3-hydroxyphenyl)carbamoyl)piperidin-4-yl)-2,3-dioxopiperazine-1-carboxamido)-2-(2-chloro-5-fluoro-3,4-dihydroxyphenyl)acetamido)-7-fluoro-2-hydroxy-3,4-dihydro-2H-benzo[e][1,2]oxaborinine-8-carboxylic acid]								2 to 4 (≈ 2.34 to 4.69 µM)
O=C(O)c1cccc2c1OB(O)[C@@H](NC(=O)[C@H](NC(=O)N1CCN(S(=O)(=O)c3ccc(O)c(O)c3Cl)C1=O)c1ccc(P(=O)(O)O)cc1)C2 [Example 509, (R)-3-((R)-2-(3-((2-chloro-3,4-dihydroxyphenyl)sulfonyl)-2-oxoimidazolidine-1-carboxamido)-2-(4-phosphonophenyl)acetamido)-2-hydroxy-3,4-dihydro-2H-benzo[e][1,2]oxaborinine-8-carboxylic acid]	< 1	< 1	< 1	< 1	< 1	< 1	< 1	< 1
O=C(O)c1c(F)ccc2c1OB(O)[C@@H](NC(=O)[C@H](NC(=O)N1CCN(C3CCN(Cc4ccncc4)CC3)C1=O)c1cc(F)c(O)c(O)c1Cl)C2 [Example 493, (R)-3-((R)-2-(2-chloro-5-fluoro-3,4-dihydroxyphenyl)-2-(2-oxo-3-(1-(pyridin-4-ylmethyl)piperidin-4-yl)imidazolidine-1-carboxamido)acetamido)-7-fluoro-2-hydroxy-3,4-dihydro-2H-benzo[e][1,2]oxaborinine-8-carboxylic acid]								< 1
O=C(O)c1c(F)ccc2c1OB(O)[C@@H](NC(=O)C(NC(=O)N1CCN(C3CCN(C(=O)Nc4cc(O)c(F)cc4Cl)CC3)C(=O)C1=O)c1cc(F)c(O)c(O)c1Cl)C2 (stereo partly drawn) [Example 490, (3R)-3-(2-(4-(1-((2-chloro-4-fluoro-5-hydroxyphenyl)carbamoyl)piperidin-4-yl)-2,3-dioxopiperazine-1-carboxamido)-2-(2-chloro-5-fluoro-3,4-dihydroxyphenyl)acetamido)-7-fluoro-2-hydroxy-3,4-dihydro-2H-benzo[e][1,2]oxaborinine-8-carboxylic acid]								2 to 4 (≈ 2.34 to 4.69 µM)
